{
  "source": "patent US20220184025A1",
  "about": "“NOVEL DEPSIDE DIMERIC COMPOUNDS FOR SKELETAL MUSCLE MODULATION, METHODS AND USES THEREOF” (SOCIETE DES PRODUITS NESTLE S.A., priority 2019, published 2022)",
  "system": "mouse hindlimb muscles",
  "assay": "In vivo muscle regeneration after cardiotoxin injury",
  "conditions": "mice, oral gavage 100 mg/kg body weight once a day from one week before cardiotoxin injury; muscles harvested 5 days after the injury; vs. water control",
  "protocol": "Early phase of expansion and subsequent phase of myogenic differentiation of Muscle Stem Cells were evaluated by counting the number of Pax7+ cells (A) and myogenin+ cells (B), respectively. Data are expressed as number of cells per area of injured muscle. The size of each newly formed myofiber (C) has been measured based on the expression of the eMHC and laminin that allow to recognize and delineate these nascent myofibers. Results are shown as mean myofiber cross-sectional area (μm2).\nIn order to reproduce the physiological process of muscle regeneration that occurs in adult skeletal muscles in response to injury or disease, we performed an intramuscular injection of cardiotoxin into mouse hindlimb muscles. One week prior to the induction of the muscle injury, mice were given by oral gavage diffractaic acid (at 100 mg/kg body weight) vs. water control. Mice were treated once a day until the end of the experiment. To evaluate the efficiency of the muscle regeneration, muscles that have been previously injured were harvested 5 days after the injury and cryosections were prepared. Several myogenic markers were then measured. […]\nData are expressed as number of cells per area of injured muscle. The size of each newly formed myofiber (FIG. 10C) has been measured based on the expression of the eMHC and laminin that allow to recognize and delineate these nascent myofibers. […]",
  "data": [
    {"smiles": "COc1cc(C)c(C(=O)Oc2cc(C)c(C(=O)O)c(O)c2C)c(OC)c1C", "note": "[Diffractaic acid, Benzoic acid, 2,4-dimethoxy-3,6-dimethyl-, 4-carboxy-3-hydroxy-2,5-dimethylphenyl ester]", "values": [
      {"measurement": "in vivo muscle regeneration process", "result": "able to promote the in vivo muscle regeneration process"}
    ]}
  ]
}
